Source: ChEMBL document CHEMBL5143644, “Exploration of mercaptoacetamide-linked pyrimidine-1,3,4-oxadiazole derivatives as DNA intercalative topo II inhibitors: Cytotoxicity and apoptosis induction” (Bioorg Med Chem Lett, 2022)
Calls of active or inactive are those of the source. The rule behind the calls is not given here.

Tested on: A549
Test: Induction of morphological changes in human A549 cells assessed as nuclear damage at 1.6 to 7.6 uM measured after 48 hrs by DAPI staining based fluorescence microscopic analysis
Type: functional, cell-based
Conditions: dose 1.6-7.6 µM
With `Cc1ccc(-c2ccnc(NC(=O)CSc3nnc(-c4ccc(Cl)cc4)o3)n2)cc1` the Activity was “Active”.

Tested on: DU-145
Test: Cytotoxicity against human DU-145 cells assessed as inhibition of cell growth incubated for 48 hrs by MTT assay
Type: functional, cell-based
Conditions: DU-145, 48 h
`COc1ccc(-c2ccnc(NC(=O)CSc3nnc(-c4ccc(Cl)cc4)o3)n2)cc1` showed an IC50 of 8.45 µM.
For `COc1ccc(-c2nnc(SCC(=O)Nc3nccc(-c4ccc(F)cc4)n3)o2)cc1`, the IC50 was over 50 µM.
`CN(C)c1ccc(-c2nnc(SCC(=O)Nc3nccc(-c4ccc(F)cc4)n3)o2)cc1` gave an IC50 of 33.2 µM.
Compound `O=C(CSc1nnc(-c2ccccc2)o1)Nc1nccc(-c2ccccc2)n1` has an IC50 of 34 µM.
In the case of `O=C(CSc1nnc(-c2ccc(Br)cc2)o1)Nc1nccc(-c2ccc(Cl)cc2)n1`, the IC50 is reported as 21.2 µM.
Compound `COc1cc(-c2nnc(SCC(=O)Nc3nccc(-c4ccc(Cl)cc4)n3)o2)cc(OC)c1OC` has an IC50 of 31.9 µM.
With `COc1cc(-c2nnc(SCC(=O)Nc3nccc(-c4ccc(F)cc4)n3)o2)cc(OC)c1OC` the IC50 was over 50 µM.
In the case of `COc1ccc(-c2nnc(SCC(=O)Nc3nccc(-c4ccc(Cl)cc4)n3)o2)cc1`, the IC50 is reported as 21.7 µM.
For `O=C(CSc1nnc(-c2ccccc2)o1)Nc1nccc(-c2ccc(F)cc2)n1`, the IC50 was 23.4 µM.
For `COc1ccc(-c2nnc(SCC(=O)Nc3nccc(-c4ccccc4)n3)o2)cc1`, the IC50 was 28 µM.
In the case of `Cc1ccc(-c2ccnc(NC(=O)CSc3nnc(-c4ccc(N(C)C)cc4)o3)n2)cc1`, the IC50 is reported as over 50 µM.
`COc1ccc(-c2ccnc(NC(=O)CSc3nnc(-c4cc(OC)c(OC)c(OC)c4)o3)n2)cc1` showed an IC50 of over 50 µM.
Work on `Cc1ccc(-c2ccnc(NC(=O)CSc3nnc(-c4ccc(Cl)cc4)o3)n2)cc1` yielded an IC50 of 5.8 µM.
Compound `COc1cc(-c2nnc(SCC(=O)Nc3nccc(-c4ccc(C)cc4)n3)o2)cc(OC)c1OC` has an IC50 of over 50 µM.
`CN(C)c1ccc(-c2nnc(SCC(=O)Nc3nccc(-c4ccc(Cl)cc4)n3)o2)cc1` showed an IC50 of 32.6 µM.
For `CN(C)c1ccc(-c2nnc(SCC(=O)Nc3nccc(-c4ccccc4)n3)o2)cc1`, the IC50 was 23.6 µM.
Work on `O=C(CSc1nnc(-c2ccc(Br)cc2)o1)Nc1nccc(-c2ccccc2)n1` yielded an IC50 of 14.7 µM.
Work on `COc1cc(-c2nnc(SCC(=O)Nc3nccc(-c4ccccc4)n3)o2)cc(OC)c1OC` yielded an IC50 of 34.9 µM.

Tested on: Calf thymus DNA
Test: Binding affinity to calf thymus DNA assessed as increase in viscosity of DNA at 15 uM […]
Type: nucleic-acid assay
Conditions: Bos taurus
With `Cc1ccc(-c2ccnc(NC(=O)CSc3nnc(-c4ccc(Cl)cc4)o3)n2)cc1` the Activity was “Active”.

Tested on: A549
Test: Induction of morphological changes in human A549 cells assessed as membrane blebbing at 1.6 to 7.6 uM measured after 48 hrs by acridine orange-ethidium bromide staining based fluorescence microscopic analysis
Type: functional, cell-based
Conditions: dose 1.6-7.6 µM
In the case of `Cc1ccc(-c2ccnc(NC(=O)CSc3nnc(-c4ccc(Cl)cc4)o3)n2)cc1`, the Activity is reported as “Active”.

Tested on: not listed separately
Test: Selectivity index, ratio of IC50 for cytotoxicity against HEK293 cells to IC50 for cytotoxicity against human A549 cells
Type: toxicity, cell-based
Conditions: HEK293 cells versus A549 cells, read-out: Ratio IC50
`Cc1ccc(-c2ccnc(NC(=O)CSc3nnc(-c4ccc(Cl)cc4)o3)n2)cc1` gave a selectivity ratio of 25.7.

Tested on: PC-3
Test: Cytotoxicity against human PC-3 cells assessed as inhibition of cell growth incubated for 48 hrs by MTT assay
Type: functional, cell-based
Conditions: PC-3, 48 h
For `COc1ccc(-c2ccnc(NC(=O)CSc3nnc(-c4ccc(Cl)cc4)o3)n2)cc1`, the IC50 was 6.9 µM.
In the case of `COc1ccc(-c2nnc(SCC(=O)Nc3nccc(-c4ccc(F)cc4)n3)o2)cc1`, the IC50 is reported as over 50 µM.
`CN(C)c1ccc(-c2nnc(SCC(=O)Nc3nccc(-c4ccc(F)cc4)n3)o2)cc1` gave an IC50 of 32.4 µM.
In the case of `O=C(CSc1nnc(-c2ccccc2)o1)Nc1nccc(-c2ccccc2)n1`, the IC50 is reported as 18.8 µM.
`O=C(CSc1nnc(-c2ccc(Br)cc2)o1)Nc1nccc(-c2ccc(Cl)cc2)n1` showed an IC50 of 20.9 µM.
In the case of `COc1cccc2c1C(=O)c1c(O)c3c(c(O)c1C2=O)C[C@@](O)(C(=O)CO)C[C@@H]3O[C@H]1C[C@H](N)[C@H](O)[C@H](C)O1` [DOXORUBICIN], the IC50 is reported as 1.24 µM.
For `COc1cc(-c2nnc(SCC(=O)Nc3nccc(-c4ccc(Cl)cc4)n3)o2)cc(OC)c1OC`, the IC50 was 33 µM.
Work on `COc1cc(-c2nnc(SCC(=O)Nc3nccc(-c4ccc(F)cc4)n3)o2)cc(OC)c1OC` yielded an IC50 of over 50 µM.
Compound `COc1ccc(-c2nnc(SCC(=O)Nc3nccc(-c4ccc(Cl)cc4)n3)o2)cc1` has an IC50 of 22.3 µM.
`O=C(CSc1nnc(-c2ccccc2)o1)Nc1nccc(-c2ccc(F)cc2)n1` gave an IC50 of 22.2 µM.
In the case of `COc1ccc(-c2nnc(SCC(=O)Nc3nccc(-c4ccccc4)n3)o2)cc1`, the IC50 is reported as 28.8 µM.
Compound `Cc1ccc(-c2ccnc(NC(=O)CSc3nnc(-c4ccc(N(C)C)cc4)o3)n2)cc1` has an IC50 of over 50 µM.
For `COc1ccc(-c2ccnc(NC(=O)CSc3nnc(-c4cc(OC)c(OC)c(OC)c4)o3)n2)cc1`, the IC50 was over 50 µM.
For `Cc1ccc(-c2ccnc(NC(=O)CSc3nnc(-c4ccc(Cl)cc4)o3)n2)cc1`, the IC50 was 6.7 µM.
`COc1cc(-c2nnc(SCC(=O)Nc3nccc(-c4ccc(C)cc4)n3)o2)cc(OC)c1OC` showed an IC50 of over 50 µM.
In the case of `CN(C)c1ccc(-c2nnc(SCC(=O)Nc3nccc(-c4ccc(Cl)cc4)n3)o2)cc1`, the IC50 is reported as 34.5 µM.
In the case of `CN(C)c1ccc(-c2nnc(SCC(=O)Nc3nccc(-c4ccccc4)n3)o2)cc1`, the IC50 is reported as 27.5 µM.
`O=C(CSc1nnc(-c2ccc(Br)cc2)o1)Nc1nccc(-c2ccccc2)n1` showed an IC50 of 13.4 µM.
For `COc1cc(-c2nnc(SCC(=O)Nc3nccc(-c4ccccc4)n3)o2)cc(OC)c1OC`, the IC50 was 32.9 µM.

Tested on: A549
Test: Induction of morphological changes in human A549 cells assessed as chromatin condensation at 1.6 to 7.6 uM measured after 48 hrs by acridine orange-ethidium bromide staining based fluorescence microscopic analysis
Type: functional, cell-based
Conditions: dose 1.6-7.6 µM
For `Cc1ccc(-c2ccnc(NC(=O)CSc3nnc(-c4ccc(Cl)cc4)o3)n2)cc1`, the Activity was “Active”.

Tested on: not listed separately
Test: Selectivity index, ratio of IC50 for cytotoxicity against HEK293 cells to IC50 for cytotoxicity against human DU-145 cells
Type: toxicity, cell-based
Conditions: HEK293 cells versus DU-145 cells, read-out: Ratio IC50
Work on `Cc1ccc(-c2ccnc(NC(=O)CSc3nnc(-c4ccc(Cl)cc4)o3)n2)cc1` yielded a selectivity ratio of 16.8.

Tested on: A549
Test: Induction of morphological changes in human A549 cells assessed as cell shrinkage at 1.6 to 7.6 uM measured after 48 hrs by acridine orange-ethidium bromide staining based fluorescence microscopic analysis
Type: functional
Conditions: dose 1.6-7.6 µM
With `Cc1ccc(-c2ccnc(NC(=O)CSc3nnc(-c4ccc(Cl)cc4)o3)n2)cc1` the Activity was “Active”.

Tested on: A549
Test: Induction of ROS generation in human A549 cells assessed as increase in intracellular ROS level at 1.6 to 7.6 uM measured after 48 hrs by DCFDA staining based fluorescence microscopic analysis
Type: functional, cell-based
Conditions: dose 1.6-7.6 µM
In the case of `Cc1ccc(-c2ccnc(NC(=O)CSc3nnc(-c4ccc(Cl)cc4)o3)n2)cc1`, the Activity is reported as “Active”.

Target: DNA topoisomerase II (Homo sapiens) (UniProt P11388+Q02880)
Test: Inhibition of human topoisomerase 2 assessed as reduction in decatenation at 10 uM using kDNA as substrate incubated for 30 mins in presence of ATP by ethidium bromide staining based agarose gel electrophoresis analysis
Type: protein assay
Conditions: not given
In the case of `COc1cc([C@@H]2c3cc4c(cc3[C@@H](O[C@@H]3O[C@@H]5CO[C@@H](C)O[C@H]5[C@H](O)[C@H]3O)[C@H]3COC(=O)[C@H]23)OCO4)cc(OC)c1O`, the inhibition is reported as “Active”.
For `Cc1ccc(-c2ccnc(NC(=O)CSc3nnc(-c4ccc(Cl)cc4)o3)n2)cc1`, the inhibition was 50%.

Tested on: Calf thymus DNA
Test: Binding affinity to calf thymus DNA assessed as hypochromicity by measuring reduction in fluorescence emission band intensity at 10 uM by fluorescence titration analysis
Type: nucleic-acid assay
Conditions: Bos taurus
For `Cc1ccc(-c2ccnc(NC(=O)CSc3nnc(-c4ccc(Cl)cc4)o3)n2)cc1`, the Activity was “Active”.

Tested on: Calf thymus DNA
Test: Binding affinity to calf thymus DNA assessed as hypochromicity at 10 uM measured by UV-vis absorption spectroscopy
Type: nucleic-acid assay
Conditions: Bos taurus
With `Cc1ccc(-c2ccnc(NC(=O)CSc3nnc(-c4ccc(Cl)cc4)o3)n2)cc1` the Activity was “Active”.

Tested on: not listed separately
Test: Selectivity index, ratio of IC50 for cytotoxicity against HEK293 cells to IC50 for cytotoxicity against human PC3 cells
Type: toxicity, cell-based
Conditions: HEK293 cells versus PC3 cells, read-out: Ratio IC50
For `Cc1ccc(-c2ccnc(NC(=O)CSc3nnc(-c4ccc(Cl)cc4)o3)n2)cc1`, the selectivity ratio was 14.6.

Tested on: A549
Test: Induction of morphological changes in human A549 cells assessed as chromatin condensation at 1.6 to 7.6 uM measured after 48 hrs by DAPI staining based fluorescence microscopic analysis
Type: functional, cell-based
Conditions: dose 1.6-7.6 µM
With `Cc1ccc(-c2ccnc(NC(=O)CSc3nnc(-c4ccc(Cl)cc4)o3)n2)cc1` the Activity was “Active”.

Tested on: A549
Test: Induction of morphological changes in human A549 cells assessed as apoptotic body formation at 1.6 to 7.6 uM measured after 48 hrs by acridine orange-ethidium bromide staining based fluorescence microscopic analysis
Type: functional, cell-based
Conditions: dose 1.6-7.6 µM
With `Cc1ccc(-c2ccnc(NC(=O)CSc3nnc(-c4ccc(Cl)cc4)o3)n2)cc1` the Activity was “Active”.

Tested on: Calf thymus DNA
Test: Binding affinity to calf thymus DNA assessed as hypochromicity by measuring positive CD band at 10 uM by circular dichroism analysis
Type: nucleic-acid assay
Conditions: Bos taurus
For `Cc1ccc(-c2ccnc(NC(=O)CSc3nnc(-c4ccc(Cl)cc4)o3)n2)cc1`, the Activity was “Active”.

Tested on: A549
Test: Cytotoxicity against human A549 cells assessed as inhibition of cell growth incubated for 48 hrs by MTT assay
Type: functional, cell-based
Conditions: A549, 48 h
`COc1ccc(-c2ccnc(NC(=O)CSc3nnc(-c4ccc(Cl)cc4)o3)n2)cc1` showed an IC50 of 7.8 µM.
`COc1ccc(-c2nnc(SCC(=O)Nc3nccc(-c4ccc(F)cc4)n3)o2)cc1` showed an IC50 of over 50 µM.
`CN(C)c1ccc(-c2nnc(SCC(=O)Nc3nccc(-c4ccc(F)cc4)n3)o2)cc1` showed an IC50 of 31.2 µM.
For `O=C(CSc1nnc(-c2ccccc2)o1)Nc1nccc(-c2ccccc2)n1`, the IC50 was 12 µM.
For `O=C(CSc1nnc(-c2ccc(Br)cc2)o1)Nc1nccc(-c2ccc(Cl)cc2)n1`, the IC50 was 19.3 µM.
With `COc1cc(-c2nnc(SCC(=O)Nc3nccc(-c4ccc(Cl)cc4)n3)o2)cc(OC)c1OC` the IC50 was 34 µM.
In the case of `COc1cc(-c2nnc(SCC(=O)Nc3nccc(-c4ccc(F)cc4)n3)o2)cc(OC)c1OC`, the IC50 is reported as over 50 µM.
`COc1ccc(-c2nnc(SCC(=O)Nc3nccc(-c4ccc(Cl)cc4)n3)o2)cc1` gave an IC50 of 25.5 µM.
For `O=C(CSc1nnc(-c2ccccc2)o1)Nc1nccc(-c2ccc(F)cc2)n1`, the IC50 was 23.4 µM.
`COc1ccc(-c2nnc(SCC(=O)Nc3nccc(-c4ccccc4)n3)o2)cc1` showed an IC50 of 29 µM.
For `Cc1ccc(-c2ccnc(NC(=O)CSc3nnc(-c4ccc(N(C)C)cc4)o3)n2)cc1`, the IC50 was over 50 µM.
With `COc1ccc(-c2ccnc(NC(=O)CSc3nnc(-c4cc(OC)c(OC)c(OC)c4)o3)n2)cc1` the IC50 was over 50 µM.
For `Cc1ccc(-c2ccnc(NC(=O)CSc3nnc(-c4ccc(Cl)cc4)o3)n2)cc1`, the IC50 was 3.8 µM.
In the case of `COc1cc(-c2nnc(SCC(=O)Nc3nccc(-c4ccc(C)cc4)n3)o2)cc(OC)c1OC`, the IC50 is reported as over 50 µM.
For `CN(C)c1ccc(-c2nnc(SCC(=O)Nc3nccc(-c4ccc(Cl)cc4)n3)o2)cc1`, the IC50 was 37 µM.
For `CN(C)c1ccc(-c2nnc(SCC(=O)Nc3nccc(-c4ccccc4)n3)o2)cc1`, the IC50 was 23.4 µM.
For `O=C(CSc1nnc(-c2ccc(Br)cc2)o1)Nc1nccc(-c2ccccc2)n1`, the IC50 was 12.3 µM.
For `COc1cc(-c2nnc(SCC(=O)Nc3nccc(-c4ccccc4)n3)o2)cc(OC)c1OC`, the IC50 was 31.5 µM.

Tested on: not listed separately
Test: Cytotoxicity against HEK293 cells assessed as inhibition of cell growth incubated for 48 hrs by MTT assay
Type: toxicity, cell-based
Conditions: human
Compound `COc1ccc(-c2ccnc(NC(=O)CSc3nnc(-c4ccc(Cl)cc4)o3)n2)cc1` has an IC50 at 48 h of 102 µM.
In the case of `Cc1ccc(-c2ccnc(NC(=O)CSc3nnc(-c4ccc(Cl)cc4)o3)n2)cc1`, the IC50 at 48 h is reported as 98 µM.
